# From US6737397B1, “Control of cancer growth through the interaction of [MET5]-enkephalin and the zeta receptor” (The Penn State Research Foundation, priority 1996, dated 2004)
# Where “and” joins values, the source holds several entries; their conditions need not be identical. Equal entries are not always repeated. Where two headings read alike, the source gives them in different places. Marks after values point to notes of the source that are not given here.
# Key:
# ζ-opioid receptor [1] = target: T1, ζ-opioid receptor (Homo sapiens, UniProt Q9NZT2); assay: Effect of cations and guanyl nucleotides on [3H]-[Met5]-enkephalin binding to HT-29 nuclear homogenates; design: from tissue; host or cells: HT-29 human colon tumor xenografts grown in athymic nude mice; nuclear (P1) and other subcellular fractions; conditions: 5, 100, 200, or 500 μM
# T1 sequence (Q9NZT2 1-677): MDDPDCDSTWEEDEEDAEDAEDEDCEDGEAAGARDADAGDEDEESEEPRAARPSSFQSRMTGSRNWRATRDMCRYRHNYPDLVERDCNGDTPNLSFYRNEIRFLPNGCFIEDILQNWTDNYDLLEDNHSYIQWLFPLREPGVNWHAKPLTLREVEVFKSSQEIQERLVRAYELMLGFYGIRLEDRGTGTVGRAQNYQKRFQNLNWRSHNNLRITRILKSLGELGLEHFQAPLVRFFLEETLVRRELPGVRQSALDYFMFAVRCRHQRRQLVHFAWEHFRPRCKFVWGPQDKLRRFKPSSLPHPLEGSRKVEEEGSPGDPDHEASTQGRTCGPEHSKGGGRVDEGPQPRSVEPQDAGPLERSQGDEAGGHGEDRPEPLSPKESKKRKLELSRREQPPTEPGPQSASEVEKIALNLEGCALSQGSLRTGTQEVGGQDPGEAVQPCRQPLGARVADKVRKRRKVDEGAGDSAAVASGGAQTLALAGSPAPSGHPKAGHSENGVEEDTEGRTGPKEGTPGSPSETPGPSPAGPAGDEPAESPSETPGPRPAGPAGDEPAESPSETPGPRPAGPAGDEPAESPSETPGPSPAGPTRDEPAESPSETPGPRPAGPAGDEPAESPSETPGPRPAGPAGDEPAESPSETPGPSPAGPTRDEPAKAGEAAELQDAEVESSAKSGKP
# Text: Histograms represent the percent of specific binding±SE.
# μ-opioid receptor = target: T2, μ-opioid receptor (Homo sapiens, UniProt P35372); assay: [3H]DAMGO binding to HT-29 nuclear (P1) and membrane (P2) homogenates; conditions: P2 fraction
# T2 construct: from tissue; host or cells: HT-29 human colon tumor xenografts from nude mice; nuclear (P1) and membrane (P2) homogenates
# T2 sequence (P35372 whole entry): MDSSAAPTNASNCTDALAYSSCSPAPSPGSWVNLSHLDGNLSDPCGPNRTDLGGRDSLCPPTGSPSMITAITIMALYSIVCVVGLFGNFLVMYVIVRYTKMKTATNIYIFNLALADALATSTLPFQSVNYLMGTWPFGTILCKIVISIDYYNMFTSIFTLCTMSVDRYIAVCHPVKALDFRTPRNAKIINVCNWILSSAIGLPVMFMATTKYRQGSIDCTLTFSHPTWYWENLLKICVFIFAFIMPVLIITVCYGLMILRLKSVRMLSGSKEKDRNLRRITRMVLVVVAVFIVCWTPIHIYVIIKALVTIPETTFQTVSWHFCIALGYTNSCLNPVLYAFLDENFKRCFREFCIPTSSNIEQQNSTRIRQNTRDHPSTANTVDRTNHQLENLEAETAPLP
# COLO 205 cells = assay: Growth assay (cell counts) of COLO 205 human colon cancer cells; assay type: cell-based; conditions: 10^−6 M, 48 hr
# Experimental: (§1) HT-29, WiDr, and COLO 205 cell lines were obtained from the American Type Culture Collection (Rockville, Md.). HT-29 cells were grown in McCoy's 5A media (modified), WiDr cells in Minimum Essential Media, and COLO 205 cells in RPMI 1640 media; all media contained 10% fetal calf serum, 2 mM […], 1.2% sodium bicarbonate and antibiotics (11 Units/ml penicillin, 10 μg/ml streptomycin, 10 μg/ml neomycin) in a humidified atmosphere of 7% CO2/93% air at 37° C. In some examples, cultures of HT-29 cells were maintained in McCoy's 5A media without fetal calf serum.
# (§2) Cells were seeded at equivalent amounts into 75 cm^2 flasks or into 9.6 cm^2 wells (6-well plates, Falcon) and were counted 24 hr later to determine plating efficiency. Drugs or sterile water were added beginning 24 hr after seeding (=0 hours) and both media and drugs were changed daily. All drugs were prepared in sterile water and dilutions represent final concentrations of the compounds. At appropriate times, cells were harvested with 0.05% trypsin/0.53 mM EDTA, centrifuged, and counted with a hemacytometer at 200×. Cell viability was determined by trypan blue staining. At least 2 aliquots/flask or well were counted and 2 flasks or wells/time point/treatment group were sampled.
# (§3) To examine the ubiquity of opioid activity with respect to colon cancer, two other colon cancer cell lines were investigated: COLO 205 and WiDr.
# [2] = test system: HT-29 human colon cancer cells; assay: HT-29 human colon cancer xenografts in nude mice treated with OGF and/or naloxone
# ζ-opioid receptor [3] = target: T1, ζ-opioid receptor; assay: Competition for binding of [3H][Met5]enkephalin (4.0 nM) in nuclear homogenates of HT-29 human colon tumors; design: from tissue; host or cells: HT-29 human colon tumor xenografts grown in athymic nude mice; nuclear (P1) and other subcellular fractions
# [4] = test system: BxPC-3 human pancreatic tumor cells; assay: BxPC-3 human pancreatic tumor xenografts in nude mice treated with OGF; assay type: in vivo
# Experimental: BxPC-3 human pancreatic cancer cells, purchased from the American Type Culture Collection (Rockville, Md.), were grown in RPMI media containing 10% fetal calf serum, penicillin (10 units/ml), and streptomycin (100 μg/ml) in an atmosphere of 93% air and 7% CO2 at 37° C. Cell viability was determined by the trypan blue exclusion test. Three-to-4-week-old male athymic nude mice, obtained from Charles River Laboratories (Wilmington, Mass.), were injected subcutaneously over the right shoulder with BxPC-3 cells (log phase) in a 0.5 ml suspension of RPMI media. The day of tumor cell inoculation was considered day 0. Mice were evaluated daily and the date that the tumor became ‘visible’ was recorded. Individual tumors were measured with vernier calipers every 2 days. Measurements of the largest perpendicular dimensions were recorded and tumor volume was calculated using the formula: length×width^2×0.5[25]. The time of ‘initial’ appearance of a tumor wag considered to be the day when tumor volume was 5 mm^3 of greater. All mice were euthanized and necropsied 30 days after tumor cell inoculation. Tumor tissues for receptor binding assays, radioimmunoassays, and immunocytochemistry were rapidly frozen in liquid nitrogen and stored at −70° C. until assayed.
# Drug treatment was initiated on the day of tumor cell inoculation. […] Injections were administered in the right or left flank. Animals were weighed weekly and appropriate dosage adjustments made.
# The latencies for visible and initial tumor appearance, as well as the appearance of a tumor volume measuring 62.5 mm^3 (when each perpendicular measurement was 5 mm), were recorded.
# Latencies for visible and initial appearance as well as tumors ≧62.5 mm were analyzed using one way analysis of variance; subsequent comparisons were made with the Newman-Keuls tests. The number of mice with initial tumor appearance on selected days was expressed as a ratio of the total number of mice in the group, and comparisons of percentages were made with chi-square tests.
# [5] = target: T3, [Met5]-enkephalin receptor (Homo sapiens, UniProt Q9NZT2); assay: [3H]-[Met5]-enkephalin binding on HT-29 cells after 48 h exposure to OGF or NTX (receptor regulation)
# T3 construct: endogenous in cells; host or cells: HT-29 human colon cancer cells, log phase, nuclear pellet (P1)
# T3 sequence (Q9NZT2 1-677): T1 sequence (Q9NZT2 1-677)
# Experimental: Log phase cells were incubated in 0.05% trypsin for at least 30 min with gentle agitation at 37° C. in order to reduce clumping of cells and facilitate isolation of cell nuclei. Preparations were homogenized (Polytron, setting 6, 2×10 sec) in a 1:20 (wt/vol) solution (=Tris/all) of cold 50 mM Tris HCl buffer with 0.1 mg/ml bacitracin, 1 μg/ml leupeptin, 60 nM thiorphan, 1 mM EGTA, and 0.6 mg/l PMSF, pH 7.4, at 4° C. […] Protein homogenates of P1 were diluted with Tris/all and incubated at room temperature (22° C.) for 20 min to remove endogenous opioid peptides.
# The final volume of the incubation mixture was 1 ml. The incubation was terminated by rapid filtration through Whatman GF-B filters under vacuum pressure with a Brandel Cell Harvester. Filters were rinsed three times with 5 ml volumes of ice-cold 50 mM Tris buffer, dried at 60° C. for 1 hour, and counted in a 2:1 solution of Aquasol-toluene by liquid scintillation spectrometry (Beckman LS-2800). […] Duplicate tubes of homogenates were assayed for each-concentration utilized. Protein concentrations were determined by the BioRad method with gamma globulin as a standard.
# HT-29 cells = assay: Growth assay (cell counts) of HT-29 human colon cancer cells in culture; assay type: cell-based
# Experimental: In some examples, cultures of HT-29 cells were maintained in McCoy's 5A media without fetal calf serum.
# as §2
# WiDr cells = assay: Growth assay (cell counts) of WiDr human colon cancer cells; assay type: cell-based; conditions: 10^−6 M, 48 hr
# Experimental: as §1, §2, §3
# ζ opioid receptor = ζ opioid receptor (Homo sapiens, UniProt Q9NZT2)
# Experimental: Receptor binding assays were performed according to procedures reported elsewhere [8] with some slight modifications. […] Six assays were performed to establish binding kinetics in control tumor tissue, whereas three independent assays were conducted on tumors from mice for comparison of OGF and control groups.
# Receptor binding data were analyzed with a Lundon 1 (Saturation Isotherm Binding Analysis) computer program (Lundon Software, Chagrin Falls, Ohio) and Prism Software (San Diego, Calif.). Both analyses utilized non-linear least-squares regression. Saturation curves and Scatchard plots were computed directly by these programs.
# Mean binding affinities and capacities for tumor tissue from animals in the OGF and control groups were compared using analysis of variance and Newman-Keuls tests.
# ζ-opioid receptor [6] = target: T1, ζ-opioid receptor
# ζ-opioid receptor [7] = target: T1, ζ-opioid receptor; conditions: for Bmax, fmol/mg protein: subcellular fractionation, P1 nuclear fraction
# ζ-opioid receptor [8] = target: T1, ζ-opioid receptor; conditions: nuclear preparation of cultured HT-29 cells
# [9] = 5 mg/kg OGF three times daily s.c.
compound,measurement,setting,value
"Nc1nc2c(ncn2C2OC(COP(=O)([O-])OP(=O)([O-])NP(=O)([O-])[O-])C(O)C2O)c(=O)[nH]1.[Li+].[Li+].[Li+].[Li+] (stereo not drawn) [GppNHp, guanylyl-imidodiphosphate (GppNHp) tetralithium salt]",effect on binding of [3H]-[Met5]-enkephalin,ζ-opioid receptor [1],not markedly reduced
C[C@@H](NC(=O)[C@@H](N)Cc1ccc(O)cc1)C(=O)NCC(=O)N(C)[C@@H](Cc1ccccc1)C(=O)NCCO [[3H]DAMGO],"Bmax, fmol/mg protein",μ-opioid receptor,20.9 ± 4.8 fmol/mg protein
[Met^5]-enkephalin,fewer cells than control cultures,COLO 205 cells,58%
same,Latency for measurable tumor appearance,[2]; 0.5 mg/kg daily,28.0 ± 0.0 days
same,"Latency for measurable tumor appearance, days, range",[2]; 0.5 mg/kg daily,(28) days
same,Latency for palpable tumor,[2]; 0.5 mg/kg daily,18.6 ± 3.2 days
same,Latency for visible tumor,[2]; 0.5 mg/kg daily,22.4 ± 2.6 days
same,No. of mice with tumors 21 days after inoculation,[2]; 0.5 mg/kg daily,2/14†
same,No. of mice with tumors 50 days after inoculation,[2]; 0.5 mg/kg daily,7/14*
same,Latency for measurable tumor appearance,[2]; 5 mg/kg daily,22.2 ± 2.3 days
same,"Latency for measurable tumor appearance, days, range",[2]; 5 mg/kg daily,(13-22) days
same,Latency for palpable tumor,[2]; 5 mg/kg daily,19.2 ± 2.2 days
same,Latency for visible tumor,[2]; 5 mg/kg daily,20.2 ± 2.2 days
same,No. of mice with tumors 21 days after inoculation,[2]; 5 mg/kg daily,4/14†
same,No. of mice with tumors 50 days after inoculation,[2]; 5 mg/kg daily,6/14†
same,Latency for measurable tumor appearance,[2]; 25 mg/kg daily,24.0 ± 4.5 days
same,"Latency for measurable tumor appearance, days, range",[2]; 25 mg/kg daily,(12-32) days
same,Latency for palpable tumor,[2]; 25 mg/kg daily,22.0 ± 4.5 days
same,Latency for visible tumor,[2]; 25 mg/kg daily,23.0 ± 4.5 days
same,No. of mice with tumors 21 days after inoculation,[2]; 25 mg/kg daily,2/14†
same,No. of mice with tumors 50 days after inoculation,[2]; 25 mg/kg daily,6/14†
same,animals with a tumor,"[2]; 50 days after inoculation, 0.5, 5, or 25 mg/kg OGF",36-50%
same,mice that never developed xenografts of colon cancer,"[2]; all OGF doses, 7-wk experimental period",57%
same,mice with a measurable tumor,"[2]; by day 21, 0.5, 5, or 25 mg/kg OGF",14-28%
same,dose-response of tumor incidence and delay in oncogenesis,"[2]; mouse, in vivo",no distinct dose-response effect
same,greater ability to displace [3H]-[Met5]-enkephalin than the next ranking compound,ζ-opioid receptor [3],2.3 fold
same,Number of mice with tumors 7 days after tumor cell inoculation,[4]; 5 mg/kg OGF three times daily,0/13*
same,Number of mice with tumors 14 days after tumor cell inoculation,[4]; 5 mg/kg OGF three times daily,5/13*
same,Number of mice with tumors 15 days after tumor cell inoculation,[4]; 5 mg/kg OGF three times daily,8/13*
same,Number of mice with tumors 22 days after tumor cell inoculation,[4]; 5 mg/kg OGF three times daily,12/13
same,Number of mice with tumors 30 days after tumor cell inoculation,[4]; 5 mg/kg OGF three times daily,12/13
same,interval from inoculation to initial tumor appearance longer than sterile water,[4]; 5 mg/kg OGF three times daily,43%
same,latency until tumor reached 62.5 mm^3 longer than control group,[4]; 5 mg/kg OGF three times daily,~41%
same,visible tumors developed later than controls,[4]; 5 mg/kg OGF three times daily,more than 3 days
same,Latency (days) for tumors of 62.5 mm^3 in size,[4]; [9],17.2 ± 1.1 days
same,Latency (days) for visible tumor,[4]; [9],12.7 ± 1.4 days
same,Latency (days) for initial tumor appearance,"[4]; 5 mg/kg OGF three times daily s.c., listed as OGF",15.2 days and 15.2 ± 1.2 days
same,animals without a neoplasia,[4]; day 15,~40%
same,mice with a tumor measuring ≧5 mm^3,[4]; fifteen days after tumor cell inoculation,less than 62%
same,mean tumor volumes versus control group,[4]; within the 30 days of the experiment,no significant differences
same,Bmax of [3H]-[Met5]-enkephalin,[5]; HT-29 cells after 48 h of exposure to the treatment,18.6 ± 1.1
same,Bmax reduced versus control cells,[5]; chronic exposure (48 h),50%
same,cell number greater after removal than in cultures maintained with peptide,HT-29 cells,more than 80%
same,cell number versus controls,HT-29 cells,comparable to controls
same,decrease in cell number from control values,HT-29 cells,35%
same,effect on cell growth in serum-free media,HT-29 cells,inhibitory effect on cell growth
same,more cells after removal than in cultures continuing to receive peptide,HT-29 cells,37%
same,reduction in number of colon cancer cells,HT-29 cells,41% and 56%
same,fewer cells than control cultures,WiDr cells,41%
same,binding affinity versus control group,ζ opioid receptor; tumors from OGF-treated mice,did not differ
same,binding sites reduced from control levels,ζ opioid receptor; tumors from OGF-treated mice,58%
same,"Bmax, fmol/mg protein",ζ opioid receptor; tumors from mice treated with 5 mg/kg OGF three times daily,24.6 ± 5.2 fmol/mg protein
[^3H]-[Met^5]-enkephalin,"Bmax, fmol/mg protein","ζ-opioid receptor [6]; Patient 1, splenic flexure adenocarcinoma",34.3 ± 9.0 fmol/mg protein
same,"Bmax, fmol/mg protein","ζ-opioid receptor [6]; Patient 2, sigmoid adenocarcinoma",32.7 ± 1.4 fmol/mg protein
same,mean binding capacity (Bmax),ζ-opioid receptor [6]; data from both patients averaged,33.5±4.1 fmol/mg protein
same,mean binding capacity (Bmax),"ζ-opioid receptor [7]; P1 nuclear homogenates of HT-29 tumors, 150 min, 22° C., pH 7.4",364.8±25.7 fmol/mg protein
same,"Bmax, fmol/mg protein",ζ-opioid receptor [7],256.0±12.6 fmol/mg protein
same,"Bmax, fmol/mg protein",ζ-opioid receptor [7]; listed as [^3H][Met^5]enkephalin,256.0 ± 12.6 fmol/mg protein
same,binding capacity (Bmax),ζ opioid receptor; tumor tissue from control animals,46.8±4.0 fmol/mg protein
same,binding capacity (Bmax),ζ-opioid receptor [8],43 fmol/mg protein
